Values joined by “and” are separate entries in the source; they are usually repeats but may differ in a detail not shown here. Identical values can stand only once.

A short description of series [1]: Volatilization monitoring by ultra-fast gas chromatograph inside empty moving box. In kind it is physicochemical. The settings on record: from fumigant pesticide composition prototype, empty medium size box, 60-150 min and 23 h after closing. As to the method: The volatilization of the prototype of the fumigant pesticide composition was monitored inside empty moving boxes. […] Ten mL of the fumigant pesticide composition prototype was placed inside a 40 mL GC vial.
Volatile monitoring was performed at two steps. Step one started 60 minutes after the box was closed and volatile samples were collected every 5-minutes for 90 minutes. The second step started 23 hours after the box was closed and samples were collected every 5-minutes for 50 minutes.

A short description of series [2]: Headspace volatilization of secondary metabolites by GCMS. The series is classed as physicochemical. The settings on record: share of total peak area. As to the method: In this study, a liquid fumigant pesticide formulation was prepared as follows: • (1) Base formula: rosemary oil (5 ml) • (2) Enhancement formula: rosemary oil high quality (0.5 ml); clove oil (0.05 ml); peppermint oil (0.075 ml) • (3) Carrier solvent: isopropyl alcohol (6 ml); isopropyl myristate (0.06 ml). Blending: • 3. The required amounts of base formula ingredients were drawn from individual stocks of chemicals via a laboratory pipette and were transferred into a 40 ml GC glass vial (2.5 cm diameter by 10 cm length) with a silicon septa. The tall vial was used to minimize surface area of liquid that is exposed to the air during preparation. The chemicals were added quickly (less than 10 second to transfer each chemical) in order to minimize exposure to air. Following the same instruction, the enhancement formula was prepared and added to the same vial. • 4. The carrier solvent was then poured over the base formula and enhancement formula inside the vial. The vial was closed immediately after the solvent was added. The base formula, enhancement formula and carrier solvent were mixed using a lab shaker for 15 seconds.
A sub-sample of the fumigant pesticide composition (0.5 ml) was placed inside a 1 ml GC vial. Three commercial samples of rosemary oil was also placed inside three separate 1 mL GC vials. Headspace volatilization of secondary metabolites from these four samples were compared using a gas chromatograph mass spectrometer (GCMS). The GCMS was programmed to only collect samples from the headspace above the liquid mixture of the chemicals in the vials. […] The GCMS was a Varian 3900 system with a Saturn 2100T ion trap mass-selective detector (Varian Inc., Walnut Creek, Calif.). The inventors used a WCOT fused silica 30 m Å˜0.25 mm i.d. column with a CP-Sil 8 CB low bleed MS coating (Varian Inc.), a 1 μL injection volume and pure helium as the carrier at 1.0 ml min-1. The temperature program used was 80° C. for 0.5 min, an increase of 8.0 $ Cmin-1 for 8.0 min, followed by an increase of 50° C. min-1 for 3.2 min. Cinnamic alcohol (Sigma, St Louis, Mo., USA) was used as an internal standard.

The mark [3] stands for this setting: Commercial rosemary oil sample one.
Where [4] appears, read: Commercial rosemary oil sample three.
The mark [5] stands for this setting: Commercial rosemary oil sample two.
The mark [6] stands for this setting: Pesticide fumigant formula of the present invention (0.5 ml in 1 ml GC vial).

Regarding `CC12CCC(CC1)C(C)(C)O2` [1,8-Cineole], the pattern of volatilization result in series [1] is listed as “Unstable pattern with greater fluctuation at the end of trial”. Also, the “% of secondary metabolite in headspace” value in series [2] (setting [3]) turned out to be 57.05%; in series [2] (setting [4]) it was 36.95%; in series [2] (setting [5]), 21.53%; in series [2] (setting [6]), 46.78%.

With `CC1=CCC2C(C1)C2(C)C` (centres unmarked) [3-Carene], in series [2] (setting [3]), the “% of secondary metabolite in headspace” value is listed as 1.88%.

Consider `CC1(C)C2CCC1(C)C(O)C2` (centres unmarked) [Borneol], for which the figures for the “% of secondary metabolite in headspace” value in series [2] (setting [3]), in series [2] (setting [4]) and in series [2] (setting [5]) were 4.06%, 1.68% and 3.60%, respectively.

For `CC(=O)OC1CC2CCC1(C)C2(C)C` (centres unmarked) [Bornyl Acetate], the results for the “% of secondary metabolite in headspace” value in series [2] (setting [3]) and in series [2] (setting [4]) were 2.70% and 2.54%, respectively.

Regarding `C=C1C2CCC(C2)C1(C)C` (centres unmarked) [Camphene], the pattern of volatilization result in series [1] was “Fluctuation pattern with increasing levels at the tail end”. For the same compound, the “% of secondary metabolite in headspace” value in series [2] (setting [3]) is 4.26%; in series [2] (setting [4]), 10.06% and 4.72%; in series [2] (setting [5]), 13.04%; in series [2] (setting [6]) it was 9.98%.

Regarding `CC12CCC(CC1=O)C2(C)C` (centres unmarked) [Camphor], in series [1], the pattern of volatilization entry was “Fluctuation pattern with increasing levels at the tail end”. The “% of secondary metabolite in headspace” value in series [2] (setting [3]) came out at 11.89%; in series [2] (setting [4]), 18.60%; in series [2] (setting [5]) it was 25.50%; in series [2] (setting [6]), 23.30%.

Consider `C=C(C)[C@H]1CC=C(C)CC1` [D-Limonene], for which the pattern of volatilization entry in series [1] is recorded as “Fluctuation pattern with increasing levels at the tail end”. The “% of secondary metabolite in headspace” value in series [2] (setting [5]) is 4.67%.

As to `C=CCc1ccc(O)c(OC)c1` [Eugenol], the pattern of volatilization result in series [1] is given as “Unstable pattern with greater fluctuation at the end of trial”.

In the case of `CC1(C)[C@@H]2CC[C@@]1(C)[C@H](O)C2` [Isoborneol], the entries for the “% of secondary metabolite in headspace” value in series [2] (setting [3]) and in series [2] (setting [5]) were 1.74% and 2.28%, respectively.

Turning to `CC(=O)OC(C)C` [Isopropyl acetate], the “% of secondary metabolite in headspace” value in series [2] (setting [5]) came out at 3.25%.

As for `CC1=CC[C@@H](C(C)(C)O)CC1` [a-Terpineol], the “% of secondary metabolite in headspace” value in series [2] (setting [4]) came out at 2.48%.

Consider `CC1=CCC2CC1C2(C)C` (centres unmarked) [a-pinene], for which, in series [1], the pattern of volatilization entry is on record as “Complete inhibition pattern”. Besides, the “% of secondary metabolite in headspace” value was found to be 6.53% in series [2] (setting [3]), 14.73% in series [2] (setting [4]), 18.15% in series [2] (setting [5]) and 14.58% in series [2] (setting [6]).

In the case of `C=C1CCC2CC1C2(C)C` (centres unmarked) [b-pinene], in series [1], the pattern of volatilization result is given as “Complete inhibition pattern”. Further, the “% of secondary metabolite in headspace” value was 8.00% in series [2] (setting [3]), 6.22% in series [2] (setting [4]), 5.43% in series [2] (setting [5]) and 5.35% in series [2] (setting [6]).

For the compound `CC(C)=CCC/C(C)=C/CO` [geraniol], the pattern of volatilization entry in series [1] was “Steady compounds”.

As for `C=CC(C)(O)CCC=C(C)C` (centres unmarked) [linalool], in series [1], the pattern of volatilization entry is listed as “Steady compounds”.

For `Cc1ccc(C(C)C)cc1` [p-Cymene], the pattern of volatilization entry in series [1] is recorded as “Fluctuation pattern with increasing levels at the tail end”. Moreover, the “% of secondary metabolite in headspace” value in series [2] (setting [3]) was found to be 1.89%; in series [2] (setting [4]), 2.01%; in series [2] (setting [5]) it was 2.56%.

(Values after patent US10058092B2, “Apparatus and method for controlled release of botanical fumigant pesticides” (priority 2012, dated 2018).)
